In patent publication US12428389B2, “Diarylamide compound and application thereof” (Sunshine Lake Pharma Co., Ltd., priority 2019, dated 2025):

Tests used:
SD rats [1] = test: toxicity after 7 days intragastric administration in rats (organ indexes, serum, kidney histology)
Procedure: Normal SD rats, 8 weeks old, male, 8 rats in each group were taken. The animals were placed in a metabolic cage and acclimatized for three days prior to the experiment, on a standard diet with free access to water. […] The administration was continued for 7 days. On the 7th day, the rats were anesthetized with sodium pentobarbital, and the liver and kidney were taken, weighed, and the kidney weight index and liver weight index were calculated. […] The kidney tissue was immersed in a fixative solution (4% paraformaldehyde), embedded with a paraffin embedding machine, and then cut into 6 μm thick paraffin sections by a paraffin microtome. […] The sections were observed under an optical microscope. The inner medulla, outer medulla, and cortex of each kidney were selected for comparative observation by an optical microscope. […] Blood was collected by cardiac puncture, then centrifuged to obtain serum, which was used to measure serum indexes by instruments.

SD rats [2] = test: single subcutaneous injection, diuretic effect in rats (metabolic cage); type: in vivo; conditions: 100 mg/kg subcutaneous
Procedure: The urine collection system was siliconized in advance to prevent urine loss. […] Solvent control: corn oil. The weight of urine was measured by the weight loss method and converted to volume (1 g≈1 mL). […] The peak of the diuretic effect was at 4 h after administration, and the duration of the diuretic effect was about 6-8 h. The results were shown as means±SEM, n=6. The urine osmotic pressure of the collected urine was measured by using a freezing point osmometer. […] The peak of action was at 4 h after administration, and returned to the level before administration at 6-8 h after administration. The results were shown as means±SEM, n=6. The urine samples were detected by using a urea kit for the level of urea in the urine. According to the previously measured urine volume, urine osmotic pressure and urea excretion per 2 h, the excretion of non-urea solutes per 2 h was calculated. […] The results were shown as means±SEM, n=6.

MDCK cells = test: MDCK cytotoxicity test, CCK-8 kit; type: cell-based; conditions: 7.8-125 μM, cultured for 12 h
Procedure: In order to study the cytotoxicity of the compound of the present invention, an MDCK cytotoxicity test was completed by using a CCK-8 kit. […]. In this study, a CCK-8 kit was used to detect the cytotoxicity of compounds: MDCK cell suspension in logarithmic growth phase was inoculated into a 96-well culture plate (1×10^4 cells/well/100 μL), and 100 μL of DMEM culture solution containing 10% fetal bovine serum, 100 U/mL penicillin and 100 μg/mL streptomycin was administrated to each well, then cultured in a 37° C., 5% CO2 incubator. When the cells were 70%-80% confluent, serum starvation was performed for 12 h for synchronization. […]. At the same time, blank wells (medium, CCK-8) and control wells (cells, dissolving medium of the same concentration compound, medium, CCK-8) were set up, 3 replicate wells per group. Cell survival rate was calculated: cell survival rate (%)=[(ODexperimental well−ODblank well)/(ODcontrol well−ODblank well)]×100%, wherein OD refers to the absorbance value of each well.

SD rats [3] = test: single intragastric administration, diuretic effect in rats (metabolic cage); type: in vivo; conditions: 100 mg/kg, single (FIG. 5: intragastric)
Procedure: The urine collection system was siliconized in advance to prevent urine loss. […] The weight of urine was measured by the weight loss method and converted to volume (1 g≈1 mL). […] Urine volume began to rise at 2 h after administration, the peak of diuretic effect was at 4 h after administration, and the duration of diuretic effect was about 6-8 h. The results were shown as means±SEM, n=6. The urine osmotic pressure of the collected urine was measured by using a freezing point osmometer. […] The peak of action was at 4 h after administration, and recovered to the level before administration at 6-8 h after administration. The results were shown as means±SEM, n=6. Urine samples were detected by using a urea kit for the level of urea in the urine. According to the previously measured urine volume, urine osmotic pressure and urea excretion per 2 h, the excretion of non-urea solutes per 2 h was calculated. […] C57BL/6J mice, male, 6 in each group, weighing 20˜22 g, were taken. […] The urine collection system was siliconized in advance to prevent urine loss. […] Solvent control: CMC-Na. The weight of urine was measured by the weight loss method and converted to volume (1 g≈1 mL). […] The results were shown as means±SEM, n=6. The urine osmotic pressure of the collected urine was measured by using a freezing point osmometer. […] The results were shown as means±SEM, n=6. The urine samples were detected by using a urea kit for the level of urea in the urine. According to the previously measured urine volume, urine osmotic pressure and urea excretion per 2 h, the excretion of non-urea solutes per 2 h was calculated. […] The results were shown as means ±SEM, n=6.

## CC(=O)Nc1ccc(NC(=O)c2ccc([N+](=O)[O-])o2)cc1 [Example 3, N-(4-acetamidophenyl)-5-nitrofuran-2-carboxamide]
SD rats [1]; 100 mg/kg intragastric every 8 h, vs control
  serum urea level: no significant statistical difference
SD rats [1]; HE sections
  inner medullary tubules, histology: tubule swelling appeared in the inner medullary
SD rats [1]; HE sections, inner medulla, outer medulla, cortex
  histological morphology of the kidney: did not significantly affect
SD rats [1]; n = 8
  Serum chlorine: 101.7 ± 1.3 mM
  Serum cholesterol: 1.59 ± 0.06 mM
  Serum glucose: 9.4 ± 0.3 mM
  Serum high-density lipoprotein: 0.71 ± 0.03 mM
  Serum low-density lipoprotein: 0.34 ± 0.03 mM
  Serum potassium: 4.8 ± 0.2 mM
  Serum sodium: 147.3 ± 2.0 mM
  Serum triglyceride: 0.68 ± 0.07 mM
SD rats [2]
  duration of the diuretic effect: 6 to 8 h
  peak of action on urine osmotic pressure, time after administration: 4 h
  peak of the diuretic effect, time after administration: 4 h
  urine osmotic pressure returned to the level before administration, time after administration: 6 to 8 h
MDCK cells
  cytotoxic effect (cell survival rate): no significant cytotoxic effect
SD rats [3]
  duration of diuretic effect: 6 to 8 h
  peak of action on urine osmotic pressure, time after administration: 4 h
  peak of diuretic effect, time after administration: 4 h
  urine osmotic pressure recovered to the level before administration, time after administration: 6 to 8 h
  urine volume began to rise, time after administration: 2 h
